Laboratory results reported in patent US20050239809A1, “Methods for treating and preventing hypertension and hypertension-related disorders” (priority 2004, published 2005).

System: endothelium-denuded aorta from DOCA-salt and sham rats
Assay: Spontaneous tone of endothelium-denuded thoracic aorta in isolated tissue baths (isometric force)
Set-up: species or system rat
Experimental: Endothelial cell-denuded thoracic aorta, removed from pentobarbital (60 mg kg^-1, i.p.) anesthetized rats, were pair-mounted (Sham/DOCA) in isolated tissue baths for measurement of isometric force. (Florian and Watts (1999) Am. J. Physiol., 276: […]-[…]) Tissues were challenged with a maximal concentration of a adrenergic agonist, phenylephrine (PE) (10^-5 mol/L). IC87114 (ICOS Corporation, Bothell, Wash.) concentration response curves were generated by adding increasing concentrations of IC87114 (1×10^-9-3×10^-4 mol/L) with measurements of spontaneous tone taken every 30 minutes. Aortic strips from DOCA-salt rats were also exposed to 20 μmol/L IC87114 or vehicle for 1 hour and measurements of spontaneous tone were recorded. […] Tissues were under passive tension for optimal force production. […] The effect of IC87114 was reversible in all experiments, as spontaneous tone was restored upon washing out of IC87114. In further experiments using an IC87114 concentration equivalent to that used in previous experiments with LY294002 (20 μmol/L) (Example 1), IC87114 (20 μmol/L) or vehicle (0.1% DMSO) was incubated with aortic strips from DOCA-salt rats for 1 hour in isolated tissue baths.

Cc1ccccc1-n1c(Cn2cnc3c(N)ncnc32)nc2cccc(C)c2c1=O [IC87114, 2-(6-aminopurin-9-ylmethyl)-5-methyl-3-o-tolyl-3H-quinazolin-4-one]
effect on spontaneous tone in aorta from DOCA-salt rats, single concentration (20 μmol/L, 1 hour incubation, compared to vehicle (0.1% DMSO), P<0.05): significantly inhibits spontaneous tone development
effect of increasing concentrations on spontaneous tone in aorta from DOCA-salt rats (10^−9 to 3×10^−4 mol/L, absence of agonist, endothelium-denuded aortic strips): reduced spontaneous tone in a concentration-dependent manner
reversibility of effect on spontaneous tone upon washing out (aorta from DOCA-salt rats): reversible
